Values of other authors as cited in patent US9730971B2 (priority 2008, dated 2017).

Tests used:
Details in all cases: reported in Non Patent Literature 2
[1] = tested on: fungi such as Saccharomyces cerevisiae, Candida utilis, and Penichillium chrysogenum
[2] = tested on: Gram-positive bacteria such as Staphylococcos aureus, Streptococcus mutans, Bacillus subtilis, and Bacillus ammoniagenes
[3] = tested on: Gram-negative bacteria such as Escherichia coli, Enterobacter aerogenes, and Pseudomonas aeruginosa

CCCCCCCCCCCCCCCc1cccc(O)c1C(=O)O [anacardic acid]
antimicrobial action [1]: no antimicrobial action | antimicrobial action [2]: antimicrobial action | antimicrobial action [3]: no antimicrobial action
